Data: PubChem BioAssay (NCI)
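Values below derive from 48-hour exposures of cells grown in 96-well plates, with endpoints linearly interpolated between the two concentrations bracketing the appropriate inhibition level. The concentration for 50% growth inhibition is given as GI50. The concentration for full growth arrest is given as TGI.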

Assays:
Test in all cases: NCI tumour cell line growth inhibition, 48 h
[1] = system: SK-MEL-2 melanoma
[2] = system: SNB-75 CNS
[3] = system: SF-295 CNS
[4] = system: NCI/ADR-RES ovarian
[5] = system: RXF 393 renal
[6] = system: UACC-62 melanoma
[7] = system: HCC-2998 colon
[8] = system: CAKI-1 renal
[9] = system: A549 NSCLC
[10] = system: SK-MEL-28 melanoma

Row | SMILES | GI50 [1] [nM] | TGI [1] [nM] | GI50 [2] [nM] | TGI [2] [nM] | GI50 [3] [nM] | TGI [3] [nM] | GI50 [4] [nM] | TGI [4] [nM] | GI50 [5] [nM] | TGI [5] [nM] | GI50 [6] [nM] | TGI [6] [nM] | GI50 [7] [nM] | TGI [7] [nM] | GI50 [8] [nM] | TGI [8] [nM] | GI50 [9] [nM] | TGI [9] [nM] | GI50 [10] [nM] | TGI [10] [nM]
1 | COC(=O)c1cc(-c2ccc(OC)cc2)[nH]c1N/N=C/c1c(Cl)cccc1Cl | 377 | 8200 | 161 | 725 | 124 | 1490 | 160 | 5110 | 142 | 332 | 205 | 16800 | 118 | 536 | 351 | 15500 | 361 | 4480 | 387 | > 100000
2 | Nc1cc2[nH]cnc2c(=O)[nH]1 | – | 125000 | – | > 300000 | – | > 300000 | – | > 300000 | – | > 300000 | – | > 300000 | – | > 300000 | – | 135000 | – | > 300000 | – | > 300000
3 | CC[C@]1(O)C[C@@H]2CN(CCc3c([nH]c4ccccc34)[C@@](C(=O)OC)(c3cc4c(cc3OC)N(C)[C@H]3[C@@](O)(C(N)=O)[C@H](O)[C@]5(CC)[C@@H]6C[C@@H]6CN6CC[C@]43[C@@H]65)C2)C1 | < 3.33 | – | < 3.33 | 20600 | 4.41 | 2090 | 745 | > 9840 | 15.3 | > 33300 | < 3.33 | > 33300 | 4.13 | > 29000 | 1120 | > 33300 | 12.8 | > 33300 | 6470 | > 33300
4 | C/C(=C(/c1ccc(O)cc1)c1ccc(Cl)cc1)c1ccccc1 | 659 | 1810 | 629 | 1960 | 603 | 1500 | 668 | 1890 | 469 | 1170 | 473 | 1060 | 612 | 1510 | 781 | 2680 | 723 | 2530 | 685 | 2180
5 | Oc1c(CN2CCCC2)cc(CSCc2ccccc2)c2cccnc12 | 1860 | 7210 | 1500 | 15900 | 2190 | 8130 | 98.9 | 807 | 772 | 3740 | 363 | 2290 | 1390 | 11900 | 77.4 | 1470 | 1730 | 10600 | 1850 | 13600
6 | CC(C(=O)O)c1ccc(-c2ccccc2)c(F)c1 (centres undefined) | – | > 100000 | – | > 100000 | – | > 100000 | – | > 100000 | – | > 100000 | – | > 100000 | – | > 100000 | – | > 100000 | – | > 100000 | – | > 100000
